Consider eight molecules from ChEMBL document CHEMBL1144237, “Novel HCV NS5B polymerase inhibitors derived from 4-(1',1'-dioxo-1',4'-dihydro-1'lambda(6)-benzo[1',2',4']thiadiazin-3'-yl)-5-hydroxy-2H-pyridazin-3-ones. Part 5: Exploration of pyridazinones containing 6-amino-substituents” (Bioorg Med Chem Lett, 2008).

This series can be described thus: Apparent permeability across human Caco-2 cell membrane. The format is ADME, cell-based. A general note: Caco-2 monolayers are a common model of the intestinal barrier.
Take `CC(C)CCn1nc(-c2cccs2)c(O)c(C2=Nc3ccc(NS(C)(=O)=O)cc3S(=O)(=O)N2)c1=O`: the Papp is 0.02 ×10⁻⁶ cm/s.

Consider `CS(=O)(=O)Nc1ccc2c(c1)S(=O)(=O)N=C(c1c(O)c(N3CCCC3)nn(CCC3CC3)c1=O)N2`, for which the Papp was determined as 0.22 ×10⁻⁶ cm/s. As for `CC(C)(C)CCn1nc(N2CCCC2)c(O)c(C2=NS(=O)(=O)c3cc(NS(C)(=O)=O)ccc3N2)c1=O`, the figure is 0.37 ×10⁻⁶ cm/s. `CC(C)CCn1nc(N(C)C(C)C)c(O)c(C2=NS(=O)(=O)c3cc(NS(C)(=O)=O)ccc3N2)c1=O`: the Papp turned out to be 0.77 ×10⁻⁶ cm/s. Take `CC(C)CCn1nc(N2CCOCC2)c(O)c(C2=NS(=O)(=O)c3cc(NS(C)(=O)=O)ccc3N2)c1=O`: the Papp is 0.021 ×10⁻⁶ cm/s. For `CC(C)CCn1nc(N2CCCC2)c(O)c(C2=Nc3ccc(NS(C)(=O)=O)cc3S(=O)(=O)N2)c1=O`, the apparent permeability (Papp) came out at 0.32 ×10⁻⁶ cm/s.

Regarding `CCN(CC)c1nn(CCC(C)C)c(=O)c(C2=NS(=O)(=O)c3cc(NS(C)(=O)=O)ccc3N2)c1O`, the Papp turned out to be 0.3 ×10⁻⁶ cm/s. On to `CCCN(C)c1nn(CCC(C)C)c(=O)c(C2=NS(=O)(=O)c3cc(NS(C)(=O)=O)ccc3N2)c1O`, for which the apparent permeability (Papp) is 0.12 ×10⁻⁶ cm/s.

In general, Papp refers to a coefficient for how fast a substance crosses the barrier.
